Experimental data from patent publication US20090054392A1, “NAPHTHYLPYRIMIDINE, NAPHTHYLPYRAZINE AND NAPHTHYLPYRIDAZINE ANALOGS AND THEIR USE AS AGONISTS OF THE WNT-BETA-CATENIN CELLULAR MESSAGING SYSTEM” (Wyeth, priority 2007, published 2009).

Test system: Dkk1-LRP5-TCF-Luciferase
Test: Functional Dkk1-LRP5-TCF-Luciferase Assay in U2OS Cells
Details: for fold induction at 2 µM / EC50 / fold induction at 20 µM: Homo sapiens, U2OS; for fold induction at 2 µM: read-out: B = TCF ACTIVITY/DMSO CONTROL Fold induction @ 2.0 uM, 2.0 uM compound; for fold induction at 20 µM: read-out: C = TCF ACTIVITY/DMSO CONTROL Fold induction @ 20.0 uM, 20.0 uM compound; for A = MAX FOLD Induction/DMSO CONTROL: maximum fold induction over DMSO control

Structure (SMILES) | fold induction at 2 µM | EC50 [µM] | fold induction at 20 µM | A = MAX FOLD Induction/DMSO CONTROL [fold]
c1ccc2cc(-c3ccnc(N4CC5CCNC5C4)n3)ccc2c1 (stereo not drawn) [5-(4-naphthalen-2-ylpyrimidin-2-yl)octahydropyrrolo[3,4-b]pyrrole] | 1.5 | – | – | –
NCCC1CN(c2nccc(-c3ccc4ccccc4c3)n2)C1 [2-[1-(4-naphthalen-2-ylpyrimidin-2-yl)azetidin-3-yl]ethanamine] | 2.4 | – | – | –
NCC1CC2CCC(C1)N2c1nccc(-c2ccc3ccccc3c2)n1 (stereo not drawn) [1-{8-[4-(2-naphthyl)pyrimidin-2-yl]-8-azabicyclo[3.2.1]oct-3-yl}methanamine] | 1.5 | 0.55 | – | –
CC(C)(C)OC(=O)N1CC[C@@H](CNc2nccc(-c3ccc4ccccc4c3)n2)C1 [tert-butyl (3S)-3-({[4-(2-naphthyl)pyrimidin-2-yl]amino}methyl)pyrrolidine-1-carboxylate] | – | – | 0.01 | –
CCN(CCO)CC1CCN(c2nccc(-c3ccc4ccccc4c3)n2)CC1 [2-[ethyl({1-[4-(2-naphthyl)pyrimidin-2-yl]piperidin-4-yl}methyl)amino]ethanol] | 4.93 | – | 0.01 | 2.760
CS(=O)(=O)N1CCCN(c2nccc(-c3ccc4ccccc4c3)n2)CC1 [1-(methylsulfonyl)-4-[4-(2-naphthyl)pyrimidin-2-yl]-1,4-diazepane] | – | 5.61 | 1.59 | 1.510
O=C1CN([C@H]2CCN(c3nccc(-c4ccc5ccccc5c4)n3)C2)CCN1 [4-{(3S)-1-[4-(2-naphthyl)pyrimidin-2-yl]pyrrolidin-3-yl}piperazin-2-one] | 1.28 | 6.88 | 3.16 | 3.585
CS(=O)(=O)NC1CCCN(c2nccc(-c3ccc4ccccc4c3)n2)CC1 (stereo not drawn) [N-{1-[4-(2-naphthyl)pyrimidin-2-yl]azepan-4-yl}methanesulfonamide] | 2.04 | – | 2.21 | 1.120
NCC1CCN(c2ncc(-c3ccc4ccccc4c3)cn2)CC1 [1-{1-[5-(2-naphthyl)pyrimidin-2-yl]piperidin-4-yl}methanamine] | 3.1 | 1.2 | – | 2.900
O[C@@H]1CCN([C@@H]2CCN(c3nccc(-c4ccc5ccccc5c4)n3)C2)C1 [(3R,3′R)-1′-[4-(2-naphthyl)pyrimidin-2-yl]-1,3′-bipyrrolidin-3-ol] | – | – | 2.5 | –
CN(C)C(=O)NC1CCCN(c2nccc(-c3ccc4ccccc4c3)n2)CC1 (stereo not drawn) [N,N-dimethyl-N′-{1-[4-(2-naphthyl)pyrimidin-2-yl]azepan-4-yl}urea] | 1.74 | – | 1.75 | –
COC(=O)[C@@H](N)C1CCN(c2nccc(-c3ccc4ccccc4c3)n2)CC1 [methyl (2S)-amino{1-[4-(2-naphthyl)pyrimidin-2-yl]piperidin-4-yl}acetate] | – | – | 0.57 | 1.590
OCC1CCN([C@H]2CCN(c3nccc(-c4ccc5ccccc5c4)n3)C2)CC1 [(1-{(3S)-1-[4-(2-naphthyl)pyrimidin-2-yl]pyrrolidin-3-yl}piperidin-4-yl)methanol] | 1.72 | – | 0.94 | –
CCC(C)Nc1nccc(-c2ccc3ccccc3c2)n1 (stereo not drawn) [N-(sec-butyl)-4-(2-naphthyl)pyrimidin-2-amine] | 1.01 | – | 1.34 | –
c1ccc2cc(-c3ccnc(N4CCN(CCCN5CCOCC5)CC4)n3)ccc2c1 [4-(3-{4-[4-(2-naphthyl)pyrimidin-2-yl]piperazin-1-yl}propyl)morpholine] | 1.29 | – | 0.01 | –
N[C@H]1CC[C@H](Nc2nccc(-c3ccc4ccccc4c3)n2)CC1 [trans-N-[4-(2-naphthyl)pyrimidin-2-yl]cyclohexane-1,4-diamine] | 1.91 | 3.7 | 3.95 | 4.730
CC(=O)NCC1CN(c2nccc(-c3ccc4ccccc4c3)n2)C1 [N-({1-[4-(2-naphthyl)pyrimidin-2-yl]azetidin-3-yl}methyl)acetamide] | 0.69 | – | 1.76 | –
c1ccc2cc(-c3ccnc(N4CC[C@H](N5CCCCC5)C4)n3)ccc2c1 [4-(2-naphthyl)-2-[(3S)-3-piperidin-1-ylpyrrolidin-1-yl]pyrimidine] | 1.65 | – | – | –
CN(CCN(C)S(C)(=O)=O)[C@@H]1CCN(c2nccc(-c3ccc4ccccc4c3)n2)C1 [N-methyl-N-[2-(methyl{(3R)-1-[4-(2-naphthyl)pyrimidin-2-yl]pyrrolidin-3-yl}amino)ethyl]methanesulfonamide] | – | – | 1.9 | –
CCNC(=O)N1CC[C@H](Nc2nccc(-c3ccc4ccccc4c3)n2)C1 [(3S)—N-ethyl-3-{[4-(2-naphthyl)pyrimidin-2-yl]amino}pyrrolidine-1-carboxamide] | 2.49 | – | 2.81 | 2.500

Structure (SMILES) | fold induction at 2 µM | EC50 [µM] | fold induction at 20 µM | A = MAX FOLD Induction/DMSO CONTROL [fold]
CC(C)(C)OC(=O)N1CC[C@H](CNc2nccc(-c3ccc4ccccc4c3)n2)C1 [tert-butyl (3R)-3-({[4-(2-naphthyl)pyrimidin-2-yl]amino}methyl)pyrrolidine-1-carboxylate] | 1.83 | – | – | –
CN1CCN(C[C@H]2CCN(c3nccc(-c4ccc5ccccc5c4)n3)C2)CC1 [2-{(3R)-3-[(4-methylpiperazin-1-yl)methyl]pyrrolidin-1-yl}-4-(2-naphthyl)pyrimidine] | 2.5 | – | 0.01 | 2.180
c1ccc(CNc2nccc(-c3ccc4ccccc4c3)n2)cc1 [N-benzyl-4-(2-naphthyl)pyrimidin-2-amine] | 1.71 | – | – | –
CN(C)C(=O)NCCC1CCN(c2nccc(-c3ccc4ccccc4c3)n2)CC1 [N,N-dimethyl-N′-(2-{1-[4-(2-naphthyl)pyrimidin-2-yl]piperidin-4-yl}ethyl)urea] | 1.48 | – | 0.18 | –
COc1ccccc1-c1ccc2cc(-c3ccnc(N4CCC(CN)CC4)n3)ccc2c1 [1-(1-{4-[6-(2-methoxyphenyl)-2-naphthyl]pyrimidin-2-yl}piperidin-4-yl)methanamine] | 1.88 | – | – | –
O=C(NC1CCCN(c2nccc(-c3ccc4ccccc4c3)n2)CC1)c1ccccc1 (stereo not drawn) [N-{1-[4-(2-naphthyl)pyrimidin-2-yl]azepan-4-yl}benzamide] | 1.23 | – | 1.07 | –
NC[C@@H]1CCCN(c2nccc(-c3ccc4ccccc4c3)n2)CC1 [1-{(4R)-1-[4-(2-naphthyl)pyrimidin-2-yl]azepan-4-yl}methanamine] | 2.66 | 1.19 | – | 3.950
c1ccc(CNc2nccc(-c3ccc4ccccc4c3)n2)nc1 [4-(2-naphthyl)-N-(pyridin-2-ylmethyl)pyrimidin-2-amine] | 1.72 | – | 1.55 | 2.690
O=CNC1CCCN(c2nccc(-c3ccc4ccccc4c3)n2)CC1 (stereo not drawn) [{1-[4-(2-naphthyl)pyrimidin-2-yl]azepan-4-yl}formamide] | 1.5 | 2.25 | 2.05 | 1.800
CN(C)S(=O)(=O)N1CC(CNc2nccc(-c3ccc4ccccc4c3)n2)C1 [N,N-dimethyl-3-({[4-(2-naphthyl)pyrimidin-2-yl]amino}methyl)azetidine-1-sulfonamide] | 1.47 | – | 1.14 | –
O=[N+]([O-])CC1CCN(c2nccc(-c3ccc4ccccc4c3)n2)CC1 [4-(2-naphthyl)-2-[4-(nitromethyl)piperidin-1-yl]pyrimidine] | 1.5 | – | 0.68 | –
CN(C)C[C@@H]1CCN(c2nccc(-c3ccc4ccccc4c3)n2)C1 [N,N-dimethyl-1-{(3S)-1-[4-(2-naphthyl)pyrimidin-2-yl]pyrrolidin-3-yl}methanamine] | 2.26 | – | 2.26 | 3.620
CCNC(=O)NCCN1CCN(c2nccc(-c3ccc4ccccc4c3)n2)CC1 [N-ethyl-N′-(2-{4-[4-(2-naphthyl)pyrimidin-2-yl]piperazin-1-yl}ethyl)urea] | 1.09 | – | 0.28 | –
CC(C)(C)OC(=O)/N=C(/NCC1CCN(c2nccc(-c3ccc4ccccc4c3)n2)CC1)NC(=O)OC(C)(C)C [di-tert-butyl {(Z)-[({1-[4-(2-naphthyl)pyrimidin-2-yl]piperidin-4-yl}methyl)amino]methylylidene}biscarbamate] | 0.94 | – | 1.35 | –
OCC1CCN(c2nccc(-c3ccc4ccccc4c3)n2)C1 (stereo not drawn) [{1-[4-(2-naphthyl)pyrimidin-2-yl]pyrrolidin-3-yl}methanol] | 2.13 | 0.925 | 1.42 | 1.975
NC[C@H]1C[C@H]2C[C@@H]1CN2c1nccc(-c2ccc3ccccc3c2)n1 [1-{(1S,4S,5S)-2-[4-(2-naphthyl)pyrimidin-2-yl]-2-azabicyclo[2.2.1]hept-5-yl}methanamine] | 1.2 | – | – | –
CN(C)C(=O)NCCN1CCN(c2nccc(-c3ccc4ccccc4c3)n2)CC1 [N,N-dimethyl-N′-(2-{4-[4-(2-naphthyl)pyrimidin-2-yl]piperazin-1-yl}ethyl)urea] | 1.98 | – | – | –
Cc1ccc(S(=O)(=O)NCC2CN(c3nccc(-c4ccc5ccccc5c4)n3)C2)cc1 [4-methyl-N-({1-[4-(2-naphthyl)pyrimidin-2-yl]azetidin-3-yl}methyl)benzenesulfonamide] | 1.16 | – | 0.28 | –
c1ccc2cc(-c3ccnc(N4CC[C@H](NCCN5CCOCC5)C4)n3)ccc2c1 [(3S)—N-(2-morpholin-4-ylethyl)-1-[4-(2-naphthyl)pyrimidin-2-yl]pyrrolidin-3-amine] | 1.39 | – | 0.91 | –
